This is an account of results in patent US11925618B2, “Pharmaceutical combination for the treatment of cancer” (Piramal Enterprises Limited, priority 2014, dated 2024).

Holding throughout (assay type): cell-based
One assay has as its system FaDu cell lines. The assay can be described thus: CGI (cell growth inhibition, propidium iodide) assay in FaDu cell lines. The procedure:
(§1) The media was removed from the flask containing cells and 2-3 mL of sterile 1×DPBS was added to the flask. The DPBS was then removed from the flask and 2 mL of trypsin was added to the flask. The flask was kept in the incubator for a few seconds. The cells were then checked whether dislodged and if dislodged, 2 mL of serum was added to the flask. To the flask was then added 5-6 mL of media and swirled. The media was collected from the flask and centrifuged at 600 rpm for 10 min.
(§2) The supernatant solution was decanted and the pellet was re-suspended in 10 mL of media. To a 1.7 mL MCT; 50 μL of tryphan blue, 40 μL of media and 10 μL of cell suspension were added. The solution was then vortexed and 10 μL of this solution was loaded on a hemocytometer. The cells were counted in hemocytometer chambers and further calculated to get a count of ≥3000 cells/well/200 μL.
(§3) The cell stock was prepared using respective media and FBS, and 200 μL of the cell stock was added to each well (except media control wells) of white delta treated 96 well plate using a multi-channel pipette. To the media control wells, 200 μL of media was added. The plates were then incubated at 37° C. for 12-16 h.
(§4) The drug (the therapeutic agent) i.e. the CDK inhibitor and the antioxidant enzyme inhibitor were separately diluted to 10 folds using DMSO. The media of the plates was changed before the addition of drug to the plates and these plates were then placed in the incubator. 1 μL of CDK inhibitor and antioxidant enzyme inhibitor was added simultaneously to the respective wells and placed on the plate shaker for 15-30 mins. The plates were then placed back in incubator for 72 h or the time of incubation as decided.
(§5) 200 μL of media from each well was gently aspirated and then added 100 μL of 1×DPBS at room temperature to each well. The working stock of PI (stock 1 mg/mL) was prepared using 140 μL of PI and 20 mL of 1×DPBS for one plate. Then 1×DPBS was removed from the wells and 200 μL of PI working stock was added to each well. These plates were kept in dark for 5-10 min at room temperature on a shaker, after which the plates were stored at −80° C. until reading of the plate.
(§6) The plate was read in Spectramax fluorescence excitation maximum is 535 nm and the emission maximum is 617 nm.
Cell lines: The cell lines of FaDu for head and neck squamous cell carcinomas (HNSCC) obtained from ATCC (American Tissue type Culture Collection), USA were used in this study.
The analysis of combination index (CI) and cell growth inhibition was carried out using CGI assay method. […]
The combination studies of CDK inhibitor with TrxR inhibitor, auranofin was carried out at 12, 24, 48 and 72 h and the time point for which optimum synergy was obtained was determined. […]

The next assay has as its system MDA-MB-231 cell lines. Description: CGI (cell growth inhibition, propidium iodide) assay in MDA-MB-231 cell lines. Conditions: determined at 72 h. The procedure:
as §1, §2, §3, §4, §5, §6
Cell lines: The cell lines of MDA-MB-231 for triple negative breast cancer (TNBC) obtained from ATCC (American Tissue type Culture Collection), USA were used in this study.
The analysis of combination index and cell growth inhibition was carried out using CGI assay method. […]
The combination studies of CDK inhibitor with each of the TrxR inhibitors, auranofin, ebselen and ATO was carried out at 12, 24, 48 and 72 h and the time point for which optimum synergy was obtained was determined. […]

The subject of assay [1] is ROS production in FaDu cells. The assay can be described thus: Cellular ROS detection assay using DCFDA. Conditions: single agent. The procedure:
as §1
The supernatant solution was decanted and the pellet was re-suspended in 10 mL of media. To a 1.7 mL MCT; 50 μL of tryphan blue, 40 μL of media and 10 μL of cell suspension were added. The solution was then vortexed and 10 μL of this solution was loaded on a hemocytometer. The cells were counted in hemocytometer chambers and further calculated to get a count of ≥25000 cells/well/200 μL. […]
The plate was read in Spectamax fluoroscence excitation maximum is 485 nm and the emission maximum is 535 nm. […]
The […] cells were treated with various concentrations (μM) of auranofin or voruciclib alone or in combination. […] The treated FaDu/MDAMB-431 cells were analyzed on a fluorescent plate reader vis-a-vis the cells of positive control which were treated with 50 μM tert-butyl hydrogen peroxide (TBHP). […]

Assay [2] has as its system Thioredoxin Reductase (TrxR). The assay can be described thus: TrxR activity assay (DTNB reduction) in FaDu cell lysates. Conditions: FaDu cells, DTNB reduction with or without ATM. The procedure: • (i) Cell lines: The cell lines of FaDu for head and neck squamous cell carcinomas (HNSCC) obtained from ATCC (American Tissue type Culture Collection), USA. • (ii) DTNB: Dithio nitro benzoic acid • (iii) ATM: Aurothiomalate
TrxR assay was conducted in six-well plates with 1M cells per well. The cells were treated with various concentrations of auranofin or voruciclib and in combination of both. The TrxR activity was measured in cell lysates using DTNB (Dithio nitro benzoic acid). The DINS was reduced to TNB (Thio nito benzoic acid) with or without a specific TrxR inhibitor, Aurothiomalate (ATM). The TrxR activity was calculated based on the difference in slope obtained from linear kinetic of DTNB reduction with or without ATM treatment.
The effect of auranofin and voruciclib combination on TrxR activity assay in FaDu cells are depicted in FIG. 16. The data is represented as mean±SEM (N=2) of % TrxR activity (Y-axis) and various concentration (μM) of Auranofin or voruciclib or combination of both (X-axis); PC—Positive control, C—Vehicle control.

Like-named read-outs stand apart in the source and are kept apart here.

On to `O=c1c2ccccc2[se]n1-c1ccccc1` [Ebselen], for which the 50% effective concentration (EC50) (in general, the concentration giving half of the maximal effect) was 4.02 µM with FaDu cell lines (Homo sapiens, FaDu, 72 h) and 3.89 µM in the assay on MDA-MB-231 cell lines (Homo sapiens).

Consider Arsenic trioxide [ATO], for which the EC50 in the assay with FaDu cell lines (FaDu cell lines, determined at 72 h, read-out: EC50) stood at 4.87 µM; in the assay on MDA-MB-231 cell lines, 5.19 µM.

Consider `CC(=O)OC[C@H]1O[C@@H]([S-])[C@H](OC(C)=O)[C@@H](OC(C)=O)[C@@H]1OC(C)=O.CCP(CC)CC.[Au+]` [Auranofin], for which the “increase in ROS level as compared to untreated control” value in assay [1] is listed as about 100%. Also, the EC50 worked out at 0.15 µM with FaDu cell lines (FaDu cell lines, determined at 48 h, read-out: EC50) and 0.15 µM with MDA-MB-231 cell lines. For the same compound, in assay [2], the “effect on TrxR activity” value is “concentration dependent reduction”.

Turning to `CN1CC[C@@H](c2c(O)cc(O)c3c(=O)cc(-c4ccc(C(F)(F)F)cc4Cl)oc23)[C@@H]1CO.Cl` [Voruciclib, (+)-2-[2-Chloro-4-(trifluoromethyl)phenyl]-5,7-dihydroxy-8-[(2R,3S)-2-(hydroxymethyl)-1-methylpyrrolidin-3-yl]-4H-chromen-4-one hydrochloride], the “increase in ROS level as compared to untreated control” value in assay [1] is about 80%. For the same compound, the EC50 in the assay with FaDu cell lines (Homo sapiens, FaDu cell lines, determined at 48 h, read-out: EC50) worked out at 2.04 µM; with MDA-MB-231 cell lines (Homo sapiens) it was 2.3 µM. Further, the “effect on TrxR activity” value in assay [2] was “no effect”.
